This is an account of results in patent US11302422B2, “Methods and systems for identifying a drug mechanism of action using network dysregulation” (THE TRUSTEES OF COLUMBIA UNIVERSITY IN THE CITY OF NEW YORK, priority 2014, dated 2022).

The test system of one assay is OCI-LY3 cells. Kind of assay: Mitomycin C dose-response with JAK2 inhibitor TG101348 (CellTiter-Glo). Format: cell-based, human. Conditions: mitomycin C with TG101348 at 0.2, 0.4, 0.6 uM, 48 hrs. As to the method: The JAK2-selective inhibitor TG101348 and Mitomycin C was purchased from Selleckchem and Tocris Bioscience respectively and were and dissolved in DMSO. OCI-LY3 cells were treated with the indicated compounds in 96-well plates and there growth was determined using the CellTiter-Glo Luminescent Cell Viability Assay (Promega Corp). Typically, 30,000 OCI-Ly3 cells per well in 200 μL of growth medium were grown for 48 hrs in the presence or absence (DMSO alone) of the desired compounds, and then assayed with CellTiter Glo according to manufacturer's instructions.

The test system of assay [1] is U-2932 cells. The assay can be described thus: Lipid ROS by C11-BODIPY staining and flow cytometry. Format: cell-based. Conditions: BODIPY-C11, versus DMSO. As to the method: U-2932 cells (2×10^5) were seeded in 6-well plates and incubated at 37° C. for 16 hrs. Cells were treated with test compounds for the indicated time, then harvested, pelleted and washed once with PBS. For lipid ROS detections, cells were re-suspended with Hanks Balanced Salt Solution (HBSS, Life Technologies) containing C11-BODIPY (581/591) (2 μM) (Life Technologies) and incubated for 10 minutes at 37° C. Cells were then pelleted, re-suspended in 500 μL HBSS, strained through […] cell strainer (BD Falcon), and analyzed using BD Accuri C6 flow cytometer (BD Biosciences). C11-BODIPY signal was measured using FL1 channel. Experiments were done in biological triplicates, and a representative result was shown.
(Flow cytometry measures light scatter and fluorescence of single cells or particles in a stream.)

The next assay has as its target T1, GPX4 (Homo sapiens, UniProt P36969).
T1 construct: endogenous in cells; host or cells: U-2932 cells (cleared whole-cell lysate)
T1 sequence (P36969 1-197): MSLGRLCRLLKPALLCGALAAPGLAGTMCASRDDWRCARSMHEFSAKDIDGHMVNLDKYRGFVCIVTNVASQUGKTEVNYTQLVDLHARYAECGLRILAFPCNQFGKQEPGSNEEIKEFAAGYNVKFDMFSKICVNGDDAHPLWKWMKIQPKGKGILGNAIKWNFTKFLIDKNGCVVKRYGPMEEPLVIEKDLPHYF
The assay can be described thus: LC-MS based GPX4 assay (PC-OOH reduction) in lysates of treated cells. It is filed as cell-based. Conditions: lysates of altretamine treated U-2932 cells versus untreated lysate. As to the method: GPX4 enzymatic activity assay was performed as follows. Briefly, 1×10^6 cells were re-suspended in the cell lysis buffer. Sonication was used to make cell lysates followed by centrifugation at 14,000 rpm for 10 minutes. Protein concentration of the cleared cell lysates was determined using a Bradford protein assay (Bio-Rad). Two hundred micrograms of cellular proteins was mixed with phosphatidyl choline hydroperoxide (PC—OOH), the GPX4 specific substrate, and reduced glutathione, a GPX4 cofactor. The mixture was incubated at 37° C. for 30 minutes followed by lipid extraction using a chloroform:methanol (2:1) solution. The lipid extract was evaporated using a rotary evaporator, and re-dissolved in 100% ethanol before injecting into LC-MS instrument for PC-OOH quantitation.

Assay [2] relates to U-2932 cells. The assay can be described thus: Glutathione (GSH) level in treated cells. Format: cell-based. Conditions: 1 mM, 24 hrs, versus DMSO. As to the method:
U-2932 cells were seeded in 10 cm dish (2×10^6/dish) and grown at 37° C. for 16 hrs. Cells were treated with vehicle (0.4% DMSO), 1 mM sulfasalazine (24 hr IC50) or 1 mM altretamine (double the 24 hr IC50), and incubated for 24 hrs. Cells were then harvested, pelleted, washed once with 400 μl ice-cold PBS containing 1 mM EDTA and sonicated. After the debris was pelleted and removed, both oxidized and reduced glutathione in 120 μL of sample was quantified in technical triplicate using QuantiChrome glutathione assay kit (BioAssay Sytems). The glutathione quantity was normalized to protein concentration measured with Bradford assay (Bio-Rad).

Assay [3] has as its system U-2932 cells. The assay can be described thus: Cell viability, 24 hr IC50. Conditions: Homo sapiens, U2932. Format: cell-based. As to the method:
Compounds were selected based on their activity in a primary screen of FDA-approved, late-stage experimental, and tool compounds. OCI-LY3, OCI-LY7 and U-2932 cells were seeded in white, tissue culture-treated 96-well plates at a density of 5×10^4 cells per well in 100 μL total volume using the Janus automated liquid handling system (Perkin Elmer Inc.). After 12 hrs of incubation at 37° C. the plates were allowed to cool to room temperature prior to compound addition via the Janus. Compounds were transferred as 1 μL of DMSO stock solutions into the assay plates (plate based triplication), which were subsequently placed on an orbital shaker for 5 minutes and then placed back in the incubator. […] Plates were shaken 5 minutes on an orbital shaker before data acquisition in an Envision (PerkinElmer Inc.) (0.5 second read time, enhanced luminescence). IC20 values were determined using IDBS Activity Base utilizing a four parameter fit model.
U-2932 cells were seeded in 10 cm dish (2×10^6/dish) and grown at 37° C. for 16 hrs. […] After the debris was pelleted and removed, both oxidized and reduced glutathione in 120 μL of sample was quantified in technical triplicate using QuantiChrome glutathione assay kit (BioAssay Sytems). The glutathione quantity was normalized to protein concentration measured with Bradford assay (Bio-Rad).

In assay [4] the test system is U-2-OS cells. Kind of assay: Vincristine dose-response (alamar Blue growth inhibition) after siRNA-mediated gene silencing. Format: cell-based. As to the method:
Small interfering RNA (siRNA) targeting each specified gene and siControl SMARTpools were obtained from Dharmacon Technologies (see Table 3). Reverse transfection was performed by preparing a solution of 1 mL of Opti-MEM (Invitrogen), […], of Lipofectamine-RNAiMAX reagent (Invitrogen) and 1.25 μL of 10 μM RNAi solution (final working concentration is […]), and incubating the mixture (1 mL/well) in a 6-well dish for 20 minutes at 37° C. U-2-OS cells were detached from culture flask, and re-suspended in 2× serum-containing media at a density of 4×10^5 cells/mL. One mL of cell suspension was transferred to each well containing the transfection mixture, and the 6-well plate was returned to culture incubator. After 48 hrs, cells were detached and reverse transfected again using the same procedures. After 48 hrs, cells were trypsinized and reseeded into 384-well format to determine sensitivity against vincristine. […] Plates were incubated further for 16 hrs to allow reduction of alamar Blue, which results in the generation of red fluorescence. The fluorescence intensity was determined using a Victor 3 plate reader (Perkin Elmer, Inc.), and used to calculated percent growth inhibition.
(In general: Alamar Blue is a resazurin reagent that responds to reducing activity.)

Assay [5] concerns U-2-OS cells. The assay can be described thus: Microtubule network visualised with anti-tubulin antibody. It is filed as cell-based. Conditions: vincristine 4 nM for 24 hrs, compared to DMSO / non-specific siRNA. As to the method: Cells were grown on coverslips to ˜50% confluency and treated with compounds for 24 hrs. Cells were fixed with 3.7% formaldehyde solution in PBS for 15-30 minutes followed by washing with PBS 5 times. Cell membrane was permeabilized with 0.2% Triton-X in PBS for 10 minutes and rinsed once with TBS (10 mM Tris [pH 7.5], 150 mM NaCl). The permeabilized sample was blocked with 10% goat serum in TTBS (0.1% Tween-20 in TBS) for 30-60 minutes and washed once with TTBS. The microtubule network was probed with anti-tubulin antibody (Santa Cruz cat #sc-32293) in 1% goat serum in TTBS for 30-60 minutes at room temperature followed by washing in TTBS for 10 minutes. Alexa Fluor anti-mouse antibody (Invitrogen, cat #A-11005) was used as the secondary antibody to visualize the microtubule network using the 60× lens of a confocal microscope.

pIC50: −log10 of the molar value. Entries after “also recorded” stand apart in the source; their conditions may differ.

In the case of `Cc1cnc(Nc2ccc(OCCN3CCCC3)cc2)nc1Nc1cccc(S(=O)(=O)NC(C)(C)C)c1` [TG101348], the “effect of JAK2 inhibition on mitomycin C activity (percent cell inhibition)” value in the assay on OCI-LY3 cells is recorded as “significant, dose-dependent antagonism”.

Consider `CN(C)c1nc(N(C)C)nc(N(C)C)n1` [altretamine], for which the lipid-ROS levels result in the assay on U-2932 cells [1] is “significantly increases the levels of lipid-ROS; also recorded: induce lipid-ROS accumulation”. Also, the “GPX4 activity (residual PC-OOH signal)” value at GPX4 was “decreases the activity of GPX4; also recorded: displayed a significant [PC—OOH+H^+] signal”. Further, the GSH levels entry with U-2932 cells [2] is “indistinguishable from the control; also recorded: did not deplete GSH levels”.

Regarding `CO[C@@]12[C@H](COC(N)=O)C3=C(C(=O)C(C)=C(N)C3=O)N1C[C@@H]1N[C@@H]12` [mitomycin C], the “effect of JAK2 inhibition on mitomycin C activity (percent cell inhibition)” value in the assay with OCI-LY3 cells is given as “reduction in the sensitivity of the cells; also recorded: significant, dose-dependent antagonism”.

The pIC50 is the negative decadic logarithm of the IC50, by convention in mol/L. Read a low pIC50 as a high IC50. For the compound `O=C(O)c1cc(/N=N/c2ccc(S(=O)(=O)Nc3ccccn3)cc2)ccc1O` [sulfasalazine], the lipid-ROS levels result with U-2932 cells [1] was “significantly increases the levels of lipid-ROS; also recorded: induce lipid-ROS accumulation”. The compound further gave a pIC50 in the assay on U-2932 cells [3] of 3.00. Further, the GSH levels entry with U-2932 cells [2] is “reduces the levels of active GSH compared to control”; with U-2932 cells [2] (listed as Sulfasalazine), “depletion of GSH levels”.

With `CC[C@]1(O)C[C@H]2CN(CCc3c([nH]c4ccccc34)[C@@](C(=O)OC)(c3cc4c(cc3OC)N(C=O)[C@H]3[C@@](O)(C(=O)OC)[C@H](OC(C)=O)[C@]5(CC)C=CCN6CC[C@]43[C@@H]65)C2)C1` [vincristine], the “change of vincristine sensitivity after CCNB1 silencing” value in the assay with U-2-OS cells [4] (siRNA targeting CCNB1, 48 hrs vincristine) is reported as “reduces the cell sensitivity; also recorded: had the opposite effect”. Besides, in the assay on U-2-OS cells [4] (siRNA targeting RPS3A, 48 hrs vincristine), the “change of vincristine sensitivity after RPS3A silencing” value was “reduces the cell sensitivity; also recorded: had the opposite effect”. In addition, the “change of vincristine sensitivity after VHL silencing” value with U-2-OS cells [4] (siRNA targeting VHL, 48 hrs vincristine) is recorded as “increases the sensitivity two-folds; also recorded: more than two-fold”. Besides, in the assay on U-2-OS cells [5], the “effect on microtubule network” value was “significantly altered microtubule network”.
